Our source for the TD50 and carcinogen call values is PubChem BioAssay AID1745844 (Carcinogenic Potency Database (CPDB), 2022).

This data set relates to rodent lifetime carcinogenesis bioassay, tumor incidence TD50. Put plainly: chronic cancer bioassays in animals – CPDB, compiled studies (AID 1745844).

“And” between values parts separate entries of the source, which are not always exact repeats. Equal entries are not always repeated. The source made the active and inactive calls. No rule for the calls is given here.

Broadly, the TD50 is the 50% point of the dose-response relation for the toxic effect studied.

In the case of `Cc1cc(Cl)ccc1N`, the TD50 was 40 mg/kg/day (mouse, strain B6C3F1, females, in feed, site: all sites, lesion: hemangioma + hemangiosarcoma, dosed 95 weeks, study length 99 weeks); 42.3 mg/kg/day (mouse, strain B6C3F1, females, in feed, site: all sites, lesion: hemangiosarcoma, dosed 95 weeks, study length 99 weeks); 38.8 mg/kg/day (mouse, strain B6C3F1, females, in feed, site: any site (literature study), lesion: several types, types named in the paper, dosed 95 weeks, study length 99 weeks); 754 mg/kg/day (mouse, strain B6C3F1, females, in feed, site: liver, lesion: hepatocellular adenoma + hepatocellular carcinoma + neoplastic nodule, dosed 95 weeks, study length 99 weeks); 798 mg/kg/day (mouse, strain B6C3F1, females, in feed, site: lung, lesion: alveolar/bronchiolar adenoma + alveolar/bronchiolar carcinoma, dosed 95 weeks, study length 99 weeks); 743 mg/kg/day (mouse, strain B6C3F1, males, in feed, site: all sites, lesion: hemangioma + hemangiosarcoma, dosed 99 weeks, study length 99 weeks). Besides, the TD50 is, setting by setting: (mouse, strain B6C3F1, males, in feed, site: all sites, lesion: hemangiosarcoma, dosed 99 weeks, study length 99 weeks) 911 mg/kg/day; (mouse, strain B6C3F1, males, in feed, site: any site (literature study), lesion: several types, types named in the paper, dosed 99 weeks, study length 99 weeks) 537 mg/kg/day; (mouse, strain B6C3F1, males, in feed, site: liver, lesion: hepatocellular adenoma + hepatocellular carcinoma + neoplastic nodule, dosed 99 weeks, study length 99 weeks) 3260 mg/kg/day; (mouse, strain CD-1 HaM/ICR, females, in feed, site: all sites, lesion: all vascular tumors, dosed 51 weeks, study length 60 weeks) 15.7 mg/kg/day and 18.4 mg/kg/day; (mouse, strain CD-1 HaM/ICR, females, in feed, site: any site (literature study), lesion: several types, types named in the paper, dosed 51 weeks, study length 60 weeks) 15.6 mg/kg/day; (mouse, strain CD-1 HaM/ICR, females, in feed, site: liver, lesion: several types, types named in the paper, dosed 51 weeks, study length 60 weeks) 139 mg/kg/day (inactive). The TD50 (mouse, strain CD-1 HaM/ICR, females, in feed, site: lung, lesion: several types, types named in the paper, dosed 51 weeks, study length 60 weeks) is 153 mg/kg/day (inactive); the TD50 (mouse, strain CD-1 HaM/ICR, males, in feed, site: all sites, lesion: all vascular tumors, dosed 55 weeks, study length 60 weeks) is 15.4 mg/kg/day; the TD50 (mouse, strain CD-1 HaM/ICR, males, in feed, site: any site (literature study), lesion: several types, types named in the paper, dosed 55 weeks, study length 60 weeks) is 7.72 mg/kg/day; the TD50 (mouse, strain CD-1 HaM/ICR, males, in feed, site: liver, lesion: several types, types named in the paper, dosed 55 weeks, study length 60 weeks) is 95.7 mg/kg/day (inactive); the TD50 (mouse, strain CD-1 HaM/ICR, males, in feed, site: lung, lesion: several types, types named in the paper, dosed 55 weeks, study length 60 weeks) was 8.85 mg/kg/day (inactive); the TD50 (rat, strain Charles River CD (Sprague-Dawley), males, in feed, site: any site (literature study), lesion: several types, types named in the paper, dosed 77 weeks, study length 98 weeks) was 24.9 mg/kg/day (inactive). In addition, the TD50 is, setting by setting: (rat, strain Charles River CD (Sprague-Dawley), males, in feed, site: liver, lesion: several types, types named in the paper, dosed 77 weeks, study length 98 weeks) 123 mg/kg/day (inactive); (rat, strain Fischer 344, males, in feed, site: liver, lesion: hepatocellular adenoma + hepatocellular carcinoma + neoplastic nodule, dosed 107 weeks, study length 107 weeks) 6180 mg/kg/day; (rat, strain Fischer 344, males, in feed, site: pituitary gland, lesion: chromophobe adenoma, dosed 107 weeks, study length 107 weeks) 576 mg/kg/day (inactive). The carcinogen call (rat, strain Fischer 344, females, in feed, site: any site (literature study), lesion: several types, types named in the paper, dosed 107 weeks, study length 107 weeks) was “negative (inactive)”.
The compound `CCOP(=O)(CC1CO1)OCC` (stereo not given) yielded a TD50 (mouse, strain Ha/ICR, females, i.p., site: lung, lesion: papillary tumor, dosed 64 weeks, study length 64 weeks) of 12.4 mg/kg/day.
As to `O=[N+]([O-])c1ccc2c(c1)Cc1ccccc1-2`, the TD50 (rat, strain Wistar, males, in feed, site: forestomach, lesion: several types, types named in the paper, dosed 47 weeks, study length 104 weeks) was 0.285 mg/kg/day; the TD50 (rat, strain Wistar, males, in feed, site: forestomach, lesion: squamous-cell carcinoma, dosed 47 weeks, study length 104 weeks) is 1.12 mg/kg/day; the TD50 (rat, strain Wistar, males, in feed, site: kidney, lesion: cortical carcinoma, dosed 47 weeks, study length 104 weeks) was 2.35 mg/kg/day; the TD50 (rat, strain Wistar, males, in feed, site: kidney, lesion: several types, types named in the paper, dosed 47 weeks, study length 104 weeks) is 3 mg/kg/day; the TD50 (rat, strain Wistar, males, in feed, site: liver, lesion: hepatocellular carcinoma, dosed 47 weeks, study length 104 weeks) was 2.1 mg/kg/day.
As to `NNCc1ccccc1`, the TD50 is 252 mg/kg/day (inactive) (mouse, strain Swiss albino, females, in drinking water, site: liver, lesion: angiosarcoma, dosed 121 weeks, study length 121 weeks); 304 mg/kg/day (mouse, strain Swiss albino, females, in drinking water, site: liver, lesion: several types, types named in the paper, dosed 121 weeks, study length 121 weeks); 85.3 mg/kg/day (mouse, strain Swiss albino, females, in drinking water, site: lung, lesion: several types, types named in the paper, dosed 121 weeks, study length 121 weeks); 86.2 mg/kg/day (mouse, strain Swiss albino, males, in drinking water, site: liver, lesion: several types, types named in the paper, dosed 100 weeks, study length 100 weeks); 711 mg/kg/day (inactive) (mouse, strain Swiss albino, males, in drinking water, site: lung, lesion: adenoma, dosed 100 weeks, study length 100 weeks).
As to `C[C@]12CCC(=O)C=C1CC[C@@H]1[C@@H]2[C@@H](O)C[C@@]2(C)[C@H]1CC[C@]2(O)C(=O)CO`, the carcinogen call (rat, strain Sprague-Dawley, females, by gavage, site: any site (literature study), lesion: malignant tumor, dosed 110 weeks, study length 110 weeks) is “negative (inactive)” and the carcinogen call (rat, strain Sprague-Dawley, males, by gavage, site: any site (literature study), lesion: malignant tumor, dosed 104 weeks, study length 104 weeks) was “negative (inactive)”.
